{"source": "ChEMBL document CHEMBL4765419", "about": "“Design, synthesis and bioactivity evaluation of novel arylalkene-amide derivatives as dual-target antifungal inhibitors” (Eur J Med Chem, 2020)", "key": {"Candida albicans [1]": {"system": "Candida albicans", "assay": "Antifungal activity against Candida albicans assessed as inhibition of microbial growth by two fold broth microdilution method", "format": "functional"}, "Pichia kudriavzevii": {"system": "Pichia kudriavzevii", "assay": "Antifungal activity against Candida krusei assessed as inhibition of microbial growth by two fold broth microdilution method", "format": "functional"}, "Nakaseomyces glabratus": {"system": "Nakaseomyces glabratus", "assay": "Antifungal activity against Candida glabrata assessed as inhibition of microbial growth by two fold broth microdilution method", "format": "functional"}, "Aspergillus fumigatus": {"system": "Aspergillus fumigatus", "assay": "Antifungal activity against Aspergillus fumigatus assessed as inhibition of microbial growth by two fold broth microdilution method", "format": "functional"}, "Candida tropicalis": {"system": "Candida tropicalis", "assay": "Antifungal activity against Candida tropicalis assessed as inhibition of microbial growth by two fold broth microdilution method", "format": "functional"}, "Candida albicans [2]": {"system": "Candida albicans", "assay": "Antifungal activity against fluconazole-resistant Candida albicans 17# assessed as inhibition of microbial growth by two fold broth microdilution method", "format": "functional"}, "Candida albicans [3]": {"system": "Candida albicans", "assay": "Antifungal activity against fluconazole-resistant Candida albicans CaR assessed as inhibition of microbial growth by two fold broth microdilution method", "format": "functional"}, "Candida albicans [4]": {"system": "Candida albicans", "assay": "Antifungal activity against fluconazole-resistant Candida albicans 632 assessed as inhibition of microbial growth by two fold broth microdilution method", "format": "functional"}, "Candida albicans [5]": {"system": "Candida albicans", "assay": "Antifungal activity against fluconazole-resistant Candida albicans 901 assessed as inhibition of microbial growth by two fold broth microdilution method", "format": "functional"}, "Candida albicans [6]": {"system": "Candida albicans", "assay": "Antifungal activity against fluconazole-resistant Candida albicans 904 assessed as inhibition of microbial growth by two fold broth microdilution method", "format": "functional"}, "Candida albicans [7]": {"system": "Candida albicans", "assay": "Antifungal activity against Candida albicans ATCC SC5314 assessed as decrease in fungal cell density by polarizing microscopy", "format": "functional, organism-based"}, "Candida albicans SC5314 [8]": {"system": "Candida albicans SC5314", "assay": "Inhibition of CYP51 in Candida albicans ATCC SC5314 assessed as ergosterol level at 4 ug/ml incubated for 16 hrs by LC/MS analysis (reference value: 79.43 %)", "set-up": "scale not given: the % may be the effect or the level left", "settings": "dose 4.0 µg/ml"}, "Candida albicans SC5314 [9]": {"system": "Candida albicans SC5314", "assay": "Inhibition of CYP51 in Candida albicans ATCC SC5314 assessed as lanosterol level at 4 ug/ml incubated for 16 hrs by LC/MS analysis (reference value: 6.62 %)", "set-up": "scale not given: the % may be the effect or the level left", "settings": "dose 4.0 µg/ml"}, "Candida albicans SC5314 [10]": {"system": "Candida albicans SC5314", "assay": "Inhibition of CYP51 in Candida albicans ATCC SC5314 assessed as eburicol level at 4 ug/ml incubated for 16 hrs by LC/MS analysis (reference value: 4.67 %)", "set-up": "scale not given: the % may be the effect or the level left", "settings": "dose 4.0 µg/ml"}, "Candida albicans SC5314 [11]": {"system": "Candida albicans SC5314", "assay": "Inhibition of CYP51 in Candida albicans ATCC SC5314 assessed as squalene level at 4 ug/ml incubated for 16 hrs by LC/MS analysis (reference value: 2.25 %)", "set-up": "scale not given: the % may be the effect or the level left", "settings": "dose 4.0 µg/ml"}, "Candida albicans SC5314 [12]": {"system": "Candida albicans SC5314", "assay": "Inhibition of CYP51 in Candida albicans ATCC SC5314 assessed as unidentified sterol level at 4 ug/ml incubated for 16 hrs by LC/MS analysis (reference value: 7.03 %)", "set-up": "scale not given: the % may be the effect or the level left", "settings": "dose 4.0 µg/ml"}}, "note": "Calls of active or inactive are those of the source. The calls are words filed in the database; no cut-off is given here."}
{"molecule": "OC(Cn1cncn1)(Cn1cncn1)c1ccc(F)cc1F", "note": "[FLUCONAZOLE]", "values": [{"measurement": "MIC", "setting": "Candida albicans [1]", "result": 0.25, "unit": "µg/mL"}, {"measurement": "MIC", "setting": "Pichia kudriavzevii", "result": 1, "unit": "µg/mL"}, {"measurement": "MIC", "setting": "Nakaseomyces glabratus", "result": 0.5, "unit": "µg/mL"}, {"measurement": "MIC", "setting": "Aspergillus fumigatus", "result": "> 16", "unit": "µg/mL"}, {"measurement": "MIC", "setting": "Candida tropicalis", "result": 0.5, "unit": "µg/mL"}, {"measurement": "MIC", "setting": "Candida albicans [2]", "result": "> 16", "unit": "µg/mL"}, {"measurement": "MIC", "setting": "Candida albicans [3]", "result": "> 16", "unit": "µg/mL"}, {"measurement": "MIC", "setting": "Candida albicans [4]", "result": "> 16", "unit": "µg/mL"}, {"measurement": "MIC", "setting": "Candida albicans [5]", "result": "> 16", "unit": "µg/mL"}, {"measurement": "MIC", "setting": "Candida albicans [6]", "result": "> 16", "unit": "µg/mL"}, {"measurement": "Activity", "setting": "Candida albicans [7]", "result": "Active"}, {"measurement": "Activity", "setting": "Candida albicans SC5314 [8]", "result": 7.62, "unit": "%"}, {"measurement": "Activity", "setting": "Candida albicans SC5314 [9]", "result": 13.9, "unit": "%"}, {"measurement": "Activity", "setting": "Candida albicans SC5314 [10]", "result": 65.5, "unit": "%"}, {"measurement": "Activity", "setting": "Candida albicans SC5314 [11]", "result": 3.68, "unit": "%"}, {"measurement": "Activity", "setting": "Candida albicans SC5314 [12]", "result": 9.26, "unit": "%"}]}
